tested on: USP8 MIT domain; test: Peptide-phage display-based deep mutational scanning (DMS), USP8 MIT domain; format: binding, human; conditions: bait USP8_MIT__P40818_1_142; EFCAB12 (Q6NXP0) 2-17; pair of mutant with wild-type wt_00016 (MDDDYEAYHSLFLSLL); sheet S3.B_ProP-PD_pairs
Protocol: The residues of these 16 amino acid-long wild-type peptides were substituted to all natural amino acid residues, except cysteine, in all positions (Supplementary Table S2A). The designed peptide sequences were reverse-translated to oligonucleotides optimized to the codon usage of E. coli. The required flanking regions (5´[…] and 3´[…]) were added for library construction. The library was generated as previously described.
Four rounds of phage selections were carried out using the second generation human disorderome library or the constructed deep mutational scanning library. At least three individual replicates were used for each bait protein. 10 µg of GST-tagged proteins or GST control (diluted in PBS from the stock of proteins kept in the purification elution buffer) were immobilized in 100 µL PBS on a 96-well MaxiSorp (Nunc) plate overnight at 4 °C. The plates were incubated with blocking buffer (with 0.5% BSA in PBS) for 1 h at 4 °C followed by washing with 0.05% Tween 20 in PBS four times. The naïve phage library (10^11 CFU) was diluted in 1/5th volume PEG/NaCl (20% PEG-8000, 0.4 M NaCl) and 1X PBS, incubated on ice for 10 min and centrifuged at 10,000 [drawing 3] g for 10 min. The pellet was resuspended in the volume of PBS (100 µL/ well). The GST-coated control plate was incubated with 100 µL library per well in PBS for 1 h at 4 °C to remove non-specific binders. The supernatant was transferred to the target wells and incubated for 2 h at 4 °C. The wells were washed five times with 0.05% Tween 20 in PBS and the bound phages were eluted with 100 µL per well log-phase E. coli OmniMAX by incubating at 37° C while shaking. After 30 min, M13KO7 helper phages were added and incubated for an additional 45 min. The bacterial cultures were transferred to 1 mL 2YT supplemented with 100 µg/mL carbenicillin, 30 µg/mL kanamycin and 0.3 mM IPTG and grew overnight at 37 °C while shaking. The following day the cultures were centrifuged for 10 min at 2,000 [drawing 4] g, 4 °C. 1/10th volume of 10 [drawing 5] PBS was added to adjust the pH and heated at 65 °C for 10 min. The phage pools from each round were used as in-phages for the next round of selections.
The samples were prepared for NGS as previously described. Peptide-coding regions of the enriched phage pools were amplified and barcoded using Phusion High-Fidelity PCR Master Mix (Thermo Fisher) for 22 cycles and confirmed by 2% agarose gel electrophoresis. The PCR products were normalized with 25 µL Mag-bind Total Pure NGS beads (Omega Biotek) and 10 µL of each eluted sample (Qiagen Elution Buffer) was pooled and cleaned-up with a PCR purification kit (Qiagen). The PCR product was confirmed by 2% agarose electrophoresis and the band was extracted with QIAquick Gel extraction Kit (Qiagen) and eluted with 30 µL TE buffer. The dsDNA was quantified using QuantiT PicoGreen dsDNA Assay Kit (Thermo Fisher) and sent for NGS (Illumina MiSeq v3, 1 × 150 bp read setup, 20% PhiX, NGI SciLifeLab facility, Sweden). The NGS data were demultiplexed, adapter regions were trimmed and sequences with an average quality of at least 20 were translated to peptide sequences. The NGS data were analysed using custom Python scripts. The total read NGS counts for each selection experiment of each peptide sequence were compiled and annotated in PepTools (https://slim.icr.ac.uk/tools/peptools/). Since ProP-PD is in essence a competition assay, the possibility of the input phage library influencing the selection outcome was explored. For this, the Pearson correlation coefficient, p-value and coefficient of determination were calculated for all peptide NGS count fractions in the library coverage vs. in the selections results (Supplementary Fig. S7; Supplementary Table S2B; Supplementary Table S3B; Supplementary Table S7B). Pearson correlation coefficient and p-value were calculated using Python’s SciPy library. […]

Row | Substance | hit_pair_ratio
1 | MDDDYYAYHSLFLSLL [mut_04428] | 1.20

same assay, conditions: bait USP8_MIT__P40818_1_142; MLPH 482-497; ratio of averaged fractions of wild-type/mutant peptide pair, larger over smaller (direction to be read from the two fractions)

Row | Substance | hit_pair_ratio
2 | SEVSDIESRIAALRAF | 7.79

biological target: T1, USP8 Rhod domain (Homo sapiens, UniProt P40818); test: Peptide-phage display-based deep mutational scanning (DMS), USP8 Rhod domain; format: binding; conditions: PSSM, library USP8_DMS, days 2,3; position 7
T1 construct: USP8 Rhod (174–317) (UniProt: P40818); GST (cleaved yes); made in house; host or cells: Escherichia coli BL21-Gold (DE3)
T1 sequence (P40818 174-317): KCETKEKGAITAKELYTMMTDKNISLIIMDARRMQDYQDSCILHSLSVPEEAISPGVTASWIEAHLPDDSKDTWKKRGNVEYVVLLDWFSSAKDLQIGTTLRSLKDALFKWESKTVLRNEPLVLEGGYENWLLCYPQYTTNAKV

Row | enrichment_relative_to_wt at position 7 (wt G) | proportion of amino acid at position 7 (wt G) | Substance
3 | -19 | 0.000822 | KIAA1614_Q5VZ46_569_584 G7R (MERVLGRLSSPLRLLP; UniProt Q5VZ46 569-584, looked up, variant G7R)
4 | -96 | 0.000161 | KIAA1614_Q5VZ46_569_584 G7K (MERVLGKLSSPLRLLP; peptide 569-584; UniProt Q5VZ46 569-584, looked up, variant G7K)
5 | -3 | 0.00507 | KIAA1614_Q5VZ46_569_584 G7L (MERVLGLLSSPLRLLP; UniProt Q5VZ46 569-584, looked up, variant G575L)

same assay, conditions: PSSM, library USP8_DMS, days 2,3; position 10

Row | enrichment_relative_to_wt at position 10 (wt S) | proportion of amino acid at position 10 (wt S) | Substance
6 | -328 | 0.00172 | KIAA1614_Q5VZ46_569_584 S10V (MERVLGGLSVPLRLLP; peptide 569-584; UniProt Q5VZ46 569-584, looked up, variant S10V)
7 | -231 | 0.00245 | KIAA1614_Q5VZ46_569_584 S10I (MERVLGGLSIPLRLLP; UniProt Q5VZ46 569-584, looked up, variant S10I)
8 | -77 | 0.00734 | KIAA1614_Q5VZ46_569_584 S10E (MERVLGGLSEPLRLLP; UniProt Q5VZ46 569-584, looked up, variant S10E)

same assay, conditions: PSSM, library USP8_DMS, days 2,3; position 15

Row | enrichment_relative_to_wt at position 15 (wt L) | proportion of amino acid at position 15 (wt L) | Substance
9 | -277 | 0.00349 | KIAA1614_Q5VZ46_569_584 L15I (MERVLGGLSSPLRLIP; UniProt Q5VZ46 569-584, looked up, variant L15I)

same assay, conditions: ProP-PD DMS, bait USP8_Rhodanese__P40818_174_317; pair wild-type GMERVLGGLSSPLRLL (wt_00013) vs mutant; positive where wild-type fraction is higher, negative where mutant fraction is higher

Row | Substance | hit_pair_ratio
10 | GMERVLGGLSSPLNLL | 38.62
11 | GMERVLGGLSSPLRLM | -1.86
12 | GMERVLGGLSSPLALL | -3.54
13 | GMERVLGGLSSPLRLQ | 26.83
14 | GMERVLGGFSSPLRLL | 53.66
15 | GMERVLGGLSSPSRLL | 1.14
16 | GMERVLGGKSSPLRLL | 20.99
17 | GMERVLGGLSSPVRLL | 5.59
18 | GMERVLGGLSSPWRLL | 2.81
19 | GMERVLGGLSSPHRLL | 80.49
20 | GMERVLGGLSSPLLLL | 2.57
21 | GMERVLGGLSVPLRLL | 93.45
22 | GMERVLGGLSSPLRLT | 131.67

Second part, the substance after the results:

Row | hit_pair_ratio | Substance
23 | 321.97 | GMERVLGGLSSPLRIL
24 | 160.99 | GMERVLGGLSSPLRAL
25 | 160.99 | GMERVLGGLSSPLRNL
26 | 131.67 | GMERVLGGLPSPLRLL
27 | 4.36 | GMERVLGGLSSPERLL

same assay, conditions: ProP-PD pairs, bait USP8_Rhodanese__P40818_174_317; wild-type/mutant pair, wild type KIAA1614 569-584 GMERVLGGLSSPLRLL (wt_00013)

Row | Substance | hit_pair_ratio
28 | KMERVLGGLSSPLRLL | 10.10
29 | GMELVLGGLSSPLRLL | 160.99
30 | GHERVLGGLSSPLRLL | -7.73
31 | GPERVLGGLSSPLRLL | -9.75
32 | GQERVLGGLSSPLRLL | -1.16
33 | GSERVLGGLSSPLRLL | -3.84
34 | GMSRVLGGLSSPLRLL | 9.14
35 | GAERVLGGLSSPLRLL | -2.65
36 | GMERSLGGLSSPLRLL | 12.88
37 | GMERPLGGLSSPLRLL | 1.07
38 | GMERVLGGNSSPLRLL | 1.15

Next, values leading:

Row | hit_pair_ratio | Substance
39 | 1.70 | NMERVLGGLSSPLRLL
40 | 321.97 | FMERVLGGLSSPLRLL
41 | -9.37 | GMERFLGGLSSPLRLL
42 | 16.95 | GMHRVLGGLSSPLRLL
43 | 1.56 | DMERVLGGLSSPLRLL
44 | 321.97 | GMERVFGGLSSPLRLL
45 | -32.83 | GEERVLGGLSSPLRLL
46 | 40.25 | GMERVTGGLSSPLRLL
47 | 16.75 | GMERRLGGLSSPLRLL
48 | 30.82 | GMERKLGGLSSPLRLL

same assay, conditions: bait USP8_Rhodanese__P40818_174_317; wild-type/mutant pair ratio of averaged fractions; negative values where mutant fraction is higher

Row | Substance | hit_pair_ratio
49 | GLALWEAKMKQLAQRA | 119.01
50 | GLALWEAKMKQLKERA | 184.50
51 | GLALWEAKMKQLAVRA | 20.13
52 | GLALWEAKMKQLAERQ | 3.47
53 | GLALWEAKMLQLAERA | 26.20
54 | GLALWEAKMKQLAERY | 303.23
55 | GLALWEAKMGQLAERA | -1.24
56 | GLALWEAKMKQLAERN | -1.05
57 | GLALWEAKMKQLNERA | 17.57
58 | GLALWEAKMKQLAEEA | 15.47
59 | GLALWEAKMKQLAMRA | 7.80
60 | GLALWEAKMKQLASRA | 65.49
61 | GLALWEAKMKQLAEPA | -18.07
62 | GLALWEAKMKQLAERV | -1.88
63 | GLALWEAKMKQLADRA | 175.67
64 | GLALWEAKMKQLAERM | 33.55
65 | GLALWEAKMKQLAEKA | 12.41

Results, then the substance that gave them:

Row | hit_pair_ratio | Substance
66 | 31.63 | GLALWEAKMQQLAERA
67 | 553.50 | GLALWEAKMKQLATRA
68 | 59.51 | GLALWEAKMFQLAERA
69 | 11.23 | GLALWEAKMKQLAELA
70 | 114.71 | GLALWEAKMKQLAARA
71 | 4.16 | GLALWEAKMKQLAERE
72 | 553.50 | GLALWEAKMKQFAERA

same assay, conditions: wild type/mutant pair; bait USP8_Rhodanese__P40818_174_317; vs hit_library_peptide_wt GLALWEAKMKQLAERA; negative where mutant fraction exceeds wild type; ProP-PD pairs (sheet S7.B)

Row | Substance | hit_pair_ratio
73 | GLHLWEAKMKQLAERA | 553.50
74 | GYALWEAKMKQLAERA | 276.75
75 | GFALWEAKMKQLAERA | 114.71
76 | GLVLWEAKMKQLAERA | 27.71
77 | GLALWEAKLKQLAERA | 1107.01
78 | GLPLWEAKMKQLAERA | 10.62
79 | GLLLWEAKMKQLAERA | 1107.01

Further lines, results first:

Row | hit_pair_ratio | Substance
80 | 27.03 | GLYLWEAKMKQLAERA
81 | 127.97 | GLALWEAKHKQLAERA
82 | 49.74 | GLWLWEAKMKQLAERA
83 | 101.08 | GLALWEAKIKQLAERA
84 | 20.89 | GLMLWEAKMKQLAERA
85 | 20.50 | GLALWEMKMKQLAERA
86 | 7.49 | GLALWEAKAKQLAERA
87 | 1107.01 | GLALWERKMKQLAERA
88 | 123.00 | GLALWHAKMKQLAERA
